Source: article PMC10584170, “Machine learning-based phenotypic imaging to characterise the targetable biology of Plasmodium falciparum male gametocytes for the development of transmission-blocking antimalarials” (PLOS Pathogens, 2023)
Where two headings read alike, the source gives them in different places.

Experiments:
[1] = test system: P. falciparum male gametocytes; test: P. falciparum Dual Gamete Formation Assay (PfDGFA), male readout (exflagellation); format: cell-based, Plasmodium falciparum NF54; conditions: for Activity: hit = >50% inhibition in male or female readout in at least 3 replicates, 0 = no class assigned
Procedure, shortened: (§1)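 Day-14 NF54 gametocytes were incubated with compound for 24 h at 37°C under 1% O2/3% CO2/96% N2. Gametogenesis was triggered with ookinete medium (0.1 μM xanthurenic acid) plus Cy3-anti-Pfs25, and exflagellation was imaged by brightfield after cooling to 4°C then 28°C. Females were imaged by Pfs25 fluorescence 24 h later at 28°C.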

[2] = test system: P. falciparum female gametocytes; test: P. falciparum Dual Gamete Formation Assay (PfDGFA), female readout (Pfs25-positive female gametes); format: cell-based, Plasmodium falciparum NF54
Procedure, shortened: as §1

[3] = 2µM, 24h preincubation with gametocytes prior to induction of gametogenesis, average of replicates
[4] = 2µM, 24h preincubation with gametocytes prior to induction of gametogenesis, replicate R1
[5] = 2µM, 24h preincubation with gametocytes prior to induction of gametogenesis, replicate R3
[6] = 2µM, 24h preincubation with gametocytes prior to induction of gametogenesis, replicate R4
[7] = 2µM, 24h preincubation, number of replicates with >50% inhibition in the male readout
[8] = 2µM, 24h preincubation, number of replicates with >50% inhibition in the female readout
[9] = PfDGFA at 2µM, 24h preincubation with gametocytes prior to induction of gametogenesis, replicate R1
[10] = PfDGFA at 2µM, 24h preincubation with gametocytes prior to induction of gametogenesis, replicate R3
[11] = PfDGFA at 2µM, 24h preincubation with gametocytes prior to induction of gametogenesis, replicate R4
[12] = PfDGFA at 2µM, 24h preincubation, average of replicates
[13] = PfDGFA at 2µM, 24h preincubation with gametocytes, average of replicates
[14] = PfDGFA at 2µM, 24h preincubation with gametocytes, replicate R1
[15] = PfDGFA at 2µM, 24h preincubation with gametocytes, replicate R3
[16] = PfDGFA at 2µM, 24h preincubation with gametocytes, replicate R4
[17] = 2µM, 24h preincubation, hits selected on >50% inhibition in the male readout across replicates
[18] = PfDGFA at 2µM, 24h preincubation
[19] = 2µM, 24h preincubation, hits selected on >50% inhibition in the female readout across replicates

Row | Compound | Average inhibition male (%) [1, 3] [%] | % inhibition male (individual replicates) R1 [1, 4] [%] | % inhibition male (individual replicates) R3 [1, 5] [%] | % inhibition male (individual replicates) R4 [1, 6] [%] | Average inhibition female (%) [2, 3] [%] | % inhibition female (individual replicates) R1 [2, 4] [%] | % inhibition female (individual replicates) R3 [2, 5] [%] | % inhibition female (individual replicates) R4 [2, 6] [%] | % inhibition male (individual replicates) R1 [1, 9] [%] | % inhibition male (individual replicates) R3 [1, 10] [%] | % inhibition male (individual replicates) R4 [1, 11] [%] | Average inhibition male (%) [1, 12] [%] | % inhibition female (individual replicates) R1 [2, 9] [%] | % inhibition female (individual replicates) R3 [2, 10] [%] | % inhibition female (individual replicates) R4 [2, 11] [%] | Average inhibition female (%) [2, 12] [%] | further results
1 | CCc1ccccc1-c1csc(C(=O)NCC2CCN(Cc3ccc(C(C)(C)C)cc3)C2)c1.O=C(O)C(F)(F)F (stereo not shown) [TCMDC-134448] | -3.3 | 5.2 | -15.7 | -8.5 | 31.2 | 30.8 | 36.1 | 25.0 | – | – | – | – | – | – | – | – | HitlevelM [1, 7]: 0; HitlevelF [2, 8]: 0
2 | COc1cccc(OC)c1CN1CCC(N(C)CCCCCCCCN2CCC(OC(=O)Nc3ccccc3-c3ccccc3)CC2)CC1 [TCMDC-134684] | 52.6 | 48.0 | 25.4 | 71.6 | 31.6 | 24.1 | 24.2 | 37.8 | – | – | – | – | – | – | – | – | HitlevelM [1, 7]: 2; HitlevelF [2, 8]: 0
3 | COc1ccc(NC(=O)[C@H](Cc2ccccc2)Nc2cc(C)nc(NCCc3ccccn3)n2)cc1.O=C(O)C(F)(F)F [TCMDC-134746] | – | – | – | – | – | – | – | – | -7.8 | -30.0 | 23.6 | -7.4 | 14.8 | -15.3 | -1.8 | 1.5 | –
4 | Cc1cc(N[C@@H](CC(C)C)C(=O)NCc2cccs2)nc(NCCc2cccs2)n1.O=C(O)C(F)(F)F [TCMDC-134815] | – | – | – | – | – | – | – | – | 11.4 | 4.6 | 26.9 | 17.0 | 9.6 | -33.2 | 28.8 | 0.8 | –
5 | CN1CCC(NCc2cccc(-c3nn(C)c4nc(NC5CCCC5)ncc34)c2)CC1 [TCMDC-134840] | – | – | – | – | – | – | – | – | – | – | – | – | – | – | – | – | Average inhibition male (%) [1, 13]: 82.7%; % inhibition male (individual replicates) R1 [1, 14]: 90.3%; % inhibition male (individual replicates) R3 [1, 15]: 59.9%; % inhibition male (individual replicates) R4 [1, 16]: 92.2%; HitlevelM ([1]; number of replicates with >50% inhibition in the male readout, 2µM): 4; Average inhibition female (%) [2, 13]: 22.7%; % inhibition female (individual replicates) R1 [2, 14]: 22.9%; % inhibition female (individual replicates) R3 [2, 15]: 25.6%; % inhibition female (individual replicates) R4 [2, 16]: 7.8%; HitlevelF ([2]; number of replicates with >50% inhibition in the female readout, 2µM): 0
6 | COc1ccc(NC(=O)[C@H](CC(C)C)Nc2cc(C)nc(NCc3ccccc3C)n2)cc1.O=C(O)C(F)(F)F [TCMDC-134909] | 9.0 | 15.3 | -6.1 | 18.9 | 7.3 | 5.6 | -14.2 | 28.8 | – | – | – | – | – | – | – | – | HitlevelM [1, 17]: 0; Activity [1, 18]: 0; HitlevelF [2, 19]: 0
7 | NS(=O)(=O)c1cccc(Nc2nc(N[C@@H]3CCNC3)nc3cc[nH]c(=O)c23)c1.O=C(O)C(F)(F)F [TCMDC-135057] | -3.6 | -10.0 | – | -11.4 | 3.8 | 4.1 | 1.9 | 9.1 | – | – | – | – | – | – | – | – | HitlevelM [1, 17]: 0; Activity [1, 18]: 0; HitlevelF [2, 19]: 0
8 | COc1ccccc1CNc1ccnc(N2CC(Oc3ccc(F)cc3)C2)n1 [TCMDC-135118] | – | – | – | – | – | – | – | – | 9.0 | -43.0 | 42.2 | 10.3 | 24.5 | -33.1 | 4.4 | 3.5 | –
9 | CN1CCN(CC2(Nc3nccc(NCCc4cn(C)c5ccccc45)n3)CCCCC2)CC1 [TCMDC-135122] | 31.6 | 31.6 | 5.8 | 52.9 | 24.1 | 17.1 | 12.9 | 28.9 | – | – | – | – | – | – | – | – | HitlevelM [1, 7]: 1; HitlevelF [2, 8]: 0
10 | C#C[C@H]1O[C@@H](n2cnc3c(Nc4cc(Br)cc(C(F)(F)F)c4)ncnc32)[C@H](O)[C@@H]1O [TCMDC-135185] | – | – | – | – | – | – | – | – | – | – | – | – | – | – | – | – | Selectivity Ratio M ([1]; HepG2 Tox50 versus male IC50): 328.28; inhibition at 2 µM ([1]; Plasmodium falciparum, 2µM, 24h preincubation with gametocytes, average of replicates, read-out: Average inhibition male (%)): 97%; inhibition at 2 µM ([1]; Plasmodium falciparum, 2µM, 24h preincubation with gametocytes, replicate R1, read-out: % inhibition male (individual replicates) R1): 97.5%; inhibition at 2 µM ([1]; Plasmodium falciparum, 2µM, 24h preincubation with gametocytes, replicate R2, read-out: % inhibition male (individual replicates) R2): 96.8%; inhibition at 2 µM ([1]; Plasmodium falciparum, 2µM, 24h preincubation with gametocytes, replicate R3, read-out: % inhibition male (individual replicates) R3): 98%; inhibition at 2 µM ([1]; Plasmodium falciparum, 2µM, 24h preincubation with gametocytes, replicate R4, read-out: % inhibition male (individual replicates) R4): 95.6%; IC50 ([1]; Plasmodium falciparum, PfDGFA, 24 h incubation with gametocytes before induction, exflagellation readout, read-out: Male IC50): 300 nM; Selectivity ratio F ([2]; HepG2 Tox50 versus female IC50): 10; inhibition at 2 µM ([2]; Plasmodium falciparum, 2µM, 24h preincubation with gametocytes, average of replicates, read-out: Average inhibition female (%)): 3.7%; inhibition at 2 µM ([2]; Plasmodium falciparum, 2µM, 24h preincubation with gametocytes, replicate R1, read-out: % inhibition female (individual replicates) R1): 8.3%; inhibition at 2 µM ([2]; Plasmodium falciparum, 2µM, 24h preincubation with gametocytes, replicate R2, read-out: % inhibition female (individual replicates) R2): -2.8%; inhibition at 2 µM ([2]; Plasmodium falciparum, 2µM, 24h preincubation with gametocytes, replicate R3, read-out: % inhibition female (individual replicates) R3): -10.2%; inhibition at 2 µM ([2]; Plasmodium falciparum, 2µM, 24h preincubation with gametocytes, replicate R4, read-out: % inhibition female (individual replicates) R4): 19.5%; IC50 ([2]; Plasmodium falciparum, PfDGFA, 24 h incubation with gametocytes before induction, female gamete readout, read-out: Female IC50): > 10000 nM
11 | O=C(C1CCCC1)N1CCOC(CCN2CCC(c3ccccc3)CC2)(c2ccc(Cl)c(Cl)c2)C1 (stereo not shown) [TCMDC-135327] | – | – | – | – | – | – | – | – | 1.8 | 11.7 | 15.6 | 8.1 | 8.8 | -20.5 | 17.1 | -1.8 | –
12 | O=C(Nc1ccc(C(=O)OCC2CCCCC2)cc1)N[C@@H](Cc1ccc(O)cc1)C(=O)NC1CCN(Cc2ccc(O)cc2)C1.O=C(O)C(F)(F)F (stereo partly shown) [TCMDC-135357] | -19.1 | -13.6 | -12.1 | -40.5 | 4.9 | 8.9 | 10.5 | 8.3 | – | – | – | – | – | – | – | – | HitlevelM [1, 17]: 0; Activity [1, 18]: 0; HitlevelF [2, 19]: 0
